Experimental data: ChEMBL document CHEMBL1201862, “PubChem BioAssay data set” (2004)
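Following 48 hours of exposure in 96-well plates, responses at five concentrations were used to interpolate endpoints linearly. GI50 marks 50% less growth.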 The source made the active and inactive calls. Rule as the data show it: active = GI50 up to about 1.1 µM and inactive = higher.

Key:
Experiment in all cases: NCI-60 cell line screen, 48 h
OVCAR-3 = tested on: OVCAR-3
Malme-3M = tested on: Malme-3M
SN12C = tested on: SN12C
U-251 = tested on: U-251
TK-10 = tested on: TK-10
K562 = tested on: K562
NCI-H23 = tested on: NCI-H23
SK-MEL-5 = tested on: SK-MEL-5
NCI-H226 = tested on: NCI-H226
HL-60 = tested on: HL-60
KM12 = tested on: KM12
A549 = tested on: A549
NCI-H522 = tested on: NCI-H522
KM-20L2 = tested on: KM-20L2
A498 = tested on: A498
T47D = tested on: T47D
Hs-578T = tested on: Hs-578T
MDA-N = tested on: MDA-N
MDA-MB-435 = tested on: MDA-MB-435
DU-145 = tested on: DU-145

Row | Structure (SMILES) | GI50 (OVCAR-3) | GI50 (Malme-3M) | GI50 (SN12C) | GI50 (U-251) | GI50 (TK-10) | GI50 (K562) | GI50 (NCI-H23) | GI50 (SK-MEL-5) | GI50 (NCI-H226) | GI50 (HL-60) | GI50 (KM12) | GI50 (A549) | GI50 (NCI-H522) | GI50 (KM-20L2) | GI50 (A498) | GI50 (T47D) | GI50 (Hs-578T) | GI50 (MDA-N) | GI50 (MDA-MB-435) | GI50 (DU-145)
1 | COc1ccc2ccccc2c1CN1CCOCCOCCN(Cc2c(OC)ccc3ccccc23)CCOCCOCC1 | 16.7 µM (inactive) | > 45.9 µM (inactive) | > 69.8 µM (inactive) | > 93.3 µM (inactive) | > 100 µM (inactive) | > 25.6 µM (inactive) | > 75.3 µM (inactive) | > 38.9 µM (inactive) | 99.3 µM (inactive) | 32 µM (inactive) | > 41.7 µM (inactive) | 98.2 µM (inactive) | > 60.5 µM (inactive) | > 23 µM (inactive) | > 83.4 µM (inactive) |  |  |  |  | 
2 | Cc1cc2c(cn1)C(=O)OCC2 | > 100 µM (inactive) | > 100 µM (inactive) | > 100 µM (inactive) | > 100 µM (inactive) | > 100 µM (inactive) | > 100 µM (inactive) | > 100 µM (inactive) |  | > 100 µM (inactive) | > 100 µM (inactive) | > 100 µM (inactive) | > 100 µM (inactive) |  | > 100 µM (inactive) | > 100 µM (inactive) |  |  |  |  | 
3 | CCOP(=S)(OCC)Oc1ccc2c(c1)OC(=O)C1(Cl)C2(C)C2(Cl)C(=O)Oc3cc(OP(=S)(OCC)OCC)ccc3C12C (stereo not given) | 14.6 µM (inactive) | 22.6 µM (inactive) | 19.2 µM (inactive) | 6.35 µM (inactive) | 25.5 µM (inactive) | 27.3 µM (inactive) | > 10 µM (inactive) | 17 µM (inactive) | 15.1 µM (inactive) | 14.7 µM (inactive) | 15.5 µM (inactive) | 25.5 µM (inactive) | 10.4 µM (inactive) | 17.1 µM (inactive) | 25.5 µM (inactive) |  |  |  |  | 
4 | Oc1ccc2ccccc2c1/N=N/c1ccsc1 | > 100 µM (inactive) | > 100 µM (inactive) | > 100 µM (inactive) | > 100 µM (inactive) | > 100 µM (inactive) | > 100 µM (inactive) | > 100 µM (inactive) | > 100 µM (inactive) | > 100 µM (inactive) | 73.8 µM (inactive) | 24.9 µM (inactive) | > 100 µM (inactive) | > 100 µM (inactive) | > 100 µM (inactive) | > 100 µM (inactive) |  |  |  |  | 
5 | CC(C)N(C(=O)C12C3C4C5(C(=O)O)C(C1C35I)C42C(=O)O)C(C)C (stereo not given) | > 100 µM (inactive) | > 100 µM (inactive) | > 100 µM (inactive) | > 100 µM (inactive) | > 100 µM (inactive) | > 100 µM (inactive) | > 100 µM (inactive) | > 100 µM (inactive) | > 100 µM (inactive) | > 100 µM (inactive) | > 100 µM (inactive) | > 100 µM (inactive) | > 100 µM (inactive) | > 100 µM (inactive) | > 100 µM (inactive) |  |  |  |  | 
6 | COC(=O)[C@H]1C=C[C@@H](C)n2c(=O)c3cc4ccccc4cc3c(=O)n21 | > 100 µM (inactive) | > 100 µM (inactive) | > 100 µM (inactive) | > 100 µM (inactive) | > 100 µM (inactive) | > 100 µM (inactive) | > 100 µM (inactive) | > 100 µM (inactive) | > 100 µM (inactive) | > 100 µM (inactive) | > 100 µM (inactive) | > 100 µM (inactive) | > 100 µM (inactive) | > 100 µM (inactive) | > 100 µM (inactive) |  |  |  |  | 
7 | COC(=O)C1=C(c2cc(OC)c(OC)c(OC)c2)OC(c2ccc(OC)c(OC)c2)C1 (stereo not given) | 38.6 µM (inactive) | > 100 µM (inactive) | 51.6 µM (inactive) | 42 µM (inactive) | 54.3 µM (inactive) | 45.1 µM (inactive) | 78.2 µM (inactive) | 29.7 µM (inactive) | 96.6 µM (inactive) | 27.4 µM (inactive) | 29.2 µM (inactive) | 46.8 µM (inactive) |  | 44.9 µM (inactive) | 22.6 µM (inactive) |  |  |  |  | 
8 | CC1(C2CCC3(C)OC3C2)CO1 (stereo not given) | > 100 µM (inactive) | > 100 µM (inactive) | > 100 µM (inactive) | > 100 µM (inactive) | > 100 µM (inactive) | > 100 µM (inactive) | > 100 µM (inactive) | > 100 µM (inactive) | > 100 µM (inactive) | > 100 µM (inactive) | > 100 µM (inactive) | > 100 µM (inactive) | > 100 µM (inactive) | > 100 µM (inactive) |  |  |  |  |  | 
9 | O=C1/C(=C/c2ccccc2)CN(C(=O)CCN2CCCC2)C/C1=C\c1ccccc1 | 2.08 µM (inactive) | 3.03 µM (inactive) | 1.51 µM (inactive) | 0.794 µM (active) | 3.12 µM (inactive) | 0.287 µM (active) | 1.8 µM (inactive) | 1.83 µM (inactive) | 6 µM (inactive) | 0.298 µM (active) | 0.607 µM (active) | 3.91 µM (inactive) | 1.31 µM (inactive) | 1.62 µM (inactive) | 4.17 µM (inactive) | 1.76 µM (inactive) | 0.282 µM (active) | 0.426 µM (active) | 1.28 µM (inactive) | 4.48 µM (inactive)
10 | CN(C)NC(=O)NC12CC3CC(CC(C3)C1)C2 |  |  | > 100 µM (inactive) | > 100 µM (inactive) | > 10 µM (inactive) | > 100 µM (inactive) | > 100 µM (inactive) | > 100 µM (inactive) | > 100 µM (inactive) | > 100 µM (inactive) | > 100 µM (inactive) | > 100 µM (inactive) | > 100 µM (inactive) | > 100 µM (inactive) | > 100 µM (inactive) |  |  |  |  | 
11 | COc1ccc2c(c1)[n+]([O-])c(/C(C)=N/NC(=O)CC#N)c[n+]2[O-] | > 100 µM (inactive) | > 100 µM (inactive) | > 100 µM (inactive) | > 100 µM (inactive) | > 100 µM (inactive) | > 100 µM (inactive) | > 100 µM (inactive) | > 100 µM (inactive) | > 100 µM (inactive) | 21.1 µM (inactive) | > 100 µM (inactive) | > 100 µM (inactive) | > 100 µM (inactive) | > 100 µM (inactive) | > 100 µM (inactive) |  |  |  |  | 
12 | CCC(=S)N(C)O | 3.08 µM (inactive) | 53.5 µM (inactive) | 22 µM (inactive) | 23.4 µM (inactive) | 60.1 µM (inactive) | 0.52 µM (active) | 10.1 µM (inactive) | 8.55 µM (inactive) | 54.7 µM (inactive) | 1.48 µM (inactive) | 25 µM (inactive) | 20.3 µM (inactive) | 0.41 µM (active) | 21.7 µM (inactive) | 65.9 µM (inactive) | 46.1 µM (inactive) | > 100 µM (inactive) | 35.9 µM (inactive) | 15.6 µM (inactive) | 27.6 µM (inactive)
13 | CC(C)[C@@H]1CC[C@@H](C)C[C@H]1OC(=O)/C=C1/C2C=CC(O2)C1C(=O)O[C@@H]1C[C@H](C)CC[C@H]1C(C)C (stereo not given in full) | > 100 µM (inactive) | > 100 µM (inactive) | > 100 µM (inactive) | > 100 µM (inactive) | > 100 µM (inactive) | 51.4 µM (inactive) | > 100 µM (inactive) | > 100 µM (inactive) | 28.4 µM (inactive) | 30.5 µM (inactive) | > 100 µM (inactive) | > 100 µM (inactive) | 41.8 µM (inactive) |  | > 100 µM (inactive) | 45.3 µM (inactive) | > 100 µM (inactive) | > 100 µM (inactive) | > 100 µM (inactive) | > 100 µM (inactive)
14 | COc1cc2c(cc1OC)C1Cc3ccc(OC)c(OC)c3C[N+]1([O-])CC2 (stereo not given) | > 100 µM (inactive) | > 100 µM (inactive) | > 100 µM (inactive) | > 100 µM (inactive) | > 100 µM (inactive) | > 100 µM (inactive) | > 100 µM (inactive) | > 100 µM (inactive) |  |  | > 100 µM (inactive) | > 100 µM (inactive) | > 100 µM (inactive) | > 100 µM (inactive) | > 100 µM (inactive) |  |  |  |  | 
15 | COc1ccc(N2C(N)=C(C#N)C(C#N)(C#N)C2c2cccc([N+](=O)[O-])c2)cc1 (stereo not given) | 15.4 µM (inactive) | 6.73 µM (inactive) | 16.1 µM (inactive) | 17.4 µM (inactive) | 16.6 µM (inactive) | 2.92 µM (inactive) | 15.5 µM (inactive) | 13.4 µM (inactive) | 19.8 µM (inactive) | 3.03 µM (inactive) | 18.9 µM (inactive) | 18.3 µM (inactive) | 7.14 µM (inactive) |  | 16.1 µM (inactive) | 12.6 µM (inactive) | 24 µM (inactive) | 17.3 µM (inactive) | 16.9 µM (inactive) | 17.8 µM (inactive)
